Experimental data as given in patent US7585859B2, “PDE4B inhibitors and uses therefor” (Plexxikon, Inc., priority 2004, dated 2009).
Where two headings read alike, the source gives them in different places.

Assays:
PDE4D = target: T1, PDE4D (Homo sapiens, UniProt Q08499); experiment: PDE4 IC50 determination by Scintillation Proximity Assay, PDE4D; assay type: biochemical
T1 construct: PDE4D: The catalytic domain of human PDE4B from S3 16-V692; His6 (N); thrombin cleavage site (N); made in house; host or cells: E. coli
Method in brief: (§1)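 Radiometric SPA: PDE4B (80 ng/ml) or PDE4D (4 ng/ml) hydrolysed [^3H]cAMP over 30 min at 30°, and the bead-bound [^3H]AMP was scintillation-counted.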

[1] = target: T2, PDE4B: The catalytic domain of human PDE4B from S152-S528 (Homo sapiens, UniProt Q07343); experiment: PDE4 IC50 determination by Scintillation Proximity Assay, PDE4B; assay type: biochemical
T2 construct: His6 (N); thrombin cleavage site (N); made in house; host or cells: E. coli
Method in brief: as §1

[2] = first part of Table 2B (2-1 to 2-22), read-out: IC 50 vs. indicated assay PDE4D
[3] = first part of Table 2B (2-1 to 2-22), read-out: IC 50 vs. indicated assay PDE4B
[4] = second part of Table 2B (2-23 to 2-103), column 5, column is PDE4D in first part, read-out: IC 50 vs. indicated assay h TNFα
[5] = second part of Table 2B (2-23 to 2-103), column 3, column is PDE4B in first part, read-out: IC 50 vs. indicated assay h TNFα

T1 sequence (Q08499 380-756): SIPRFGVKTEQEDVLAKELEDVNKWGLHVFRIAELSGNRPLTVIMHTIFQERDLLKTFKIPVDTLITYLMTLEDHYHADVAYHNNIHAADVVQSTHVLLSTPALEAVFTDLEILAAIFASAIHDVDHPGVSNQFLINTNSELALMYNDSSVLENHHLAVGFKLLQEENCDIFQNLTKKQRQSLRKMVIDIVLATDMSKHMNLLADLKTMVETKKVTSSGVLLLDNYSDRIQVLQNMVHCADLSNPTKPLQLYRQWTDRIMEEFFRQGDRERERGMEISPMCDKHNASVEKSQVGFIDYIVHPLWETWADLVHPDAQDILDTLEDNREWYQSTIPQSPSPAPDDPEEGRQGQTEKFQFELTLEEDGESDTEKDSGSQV
T2 sequence (Q07343 with tags, fused parts or gaps): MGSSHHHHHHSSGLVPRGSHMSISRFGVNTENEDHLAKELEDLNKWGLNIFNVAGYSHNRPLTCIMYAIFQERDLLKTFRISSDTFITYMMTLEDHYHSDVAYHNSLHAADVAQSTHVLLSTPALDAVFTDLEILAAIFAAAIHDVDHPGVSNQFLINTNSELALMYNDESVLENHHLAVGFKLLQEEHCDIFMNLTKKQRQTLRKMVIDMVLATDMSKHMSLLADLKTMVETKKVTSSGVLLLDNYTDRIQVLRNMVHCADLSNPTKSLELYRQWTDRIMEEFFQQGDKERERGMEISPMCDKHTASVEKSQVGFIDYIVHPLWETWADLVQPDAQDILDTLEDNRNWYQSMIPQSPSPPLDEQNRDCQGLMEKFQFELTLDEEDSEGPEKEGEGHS

Row | Compound | IC50 (PDE4D; [2]) [µM] | IC50 [1, 3] [µM] | IC50 (PDE4D; [4]) [µM] | IC50 [1, 5] [µM]
1 | CC(C)Nc1nc(N)c(C(=O)c2cc(-c3ccc(Cl)c(Cl)c3)no2)s1 [Compound 2-14, (4-Amino-2-isopropylamino-thiazol-5-yl)-[3-(3,4-dichloro-phenyl)-isoxazol-5-yl]-methanone] | < 10 | < 10 | – | –
2 | CC(C)CNc1nc(N)c(C(=O)c2cc(-c3ccc(Cl)c(Cl)c3)no2)s1 [Compound 2-15, (4-Amino-2-isobutylamino-thiazol-5-yl)-[3-(3,4-dichloro-phenyl)-isoxazol-5-yl]-methanone] | < 10 | < 10 | – | –
3 | CC(C)CNc1nc(N)c(C(=O)c2cc(-c3ccc(Cl)cc3)no2)s1 [Compound 2-16, (4-Amino-2-isobutylamino-thiazol-5-yl)-[3-(4-chloro-phenyl)-isoxazol-5-yl]-methanone] | < 10 | < 10 | – | –
4 | Nc1nc(NC2CCCC2)sc1C(=O)c1ccc(-c2ccccn2)s1 [Compound 2-17, (4-Amino-2-cyclopentylamino-thiazol-5-yl)-(5-pyridin-2-yl-thiophen-2-yl)-methanone] | < 10 | < 10 | – | –
5 | Nc1nc(NC2CCCC2)sc1C(=O)c1ccc(-c2ccccc2)s1 [Compound 2-18, (4-Amino-2-cyclopentylamino-thiazol-5-yl)-(5-phenyl-thiophen-2-yl)-methanone] | < 10 | < 10 | – | –
6 | Cc1sc(-c2ccccc2)cc1C(=O)c1sc(NC2CCCC2)nc1N [Compound 2-20, (4-Amino-2-cyclopentylamino-thiazol-5-yl)-(2-methyl-5-phenyl-thiophen-3-yl)-methanone] | < 10 | < 10 | – | –
7 | Cc1c(C(=O)c2sc(NC3CCCC3)nc2N)cnn1-c1ccccc1 [Compound 2-21, (4-Amino-2-cyclopentylamino-thiazol-5-yl)-(5-methyl-1-phenyl-1H-pyrazol-4-yl)-methanone] | < 10 | < 10 | – | –
8 | Cc1nc(-c2cnccn2)sc1C(=O)c1sc(NC2CCCC2)nc1N [Compound 2-22, (4-Amino-2-cyclopentylamino-thiazol-5-yl)-(4-methyl-2-pyrazin-2-yl-thiazol-5-yl)-methanone] | < 10 | < 10 | – | –
9 | Nc1nc(Nc2ccc(Cl)cc2)sc1C(=O)c1cccc([N+](=O)[O-])c1 [Compound 2-24, [4-Amino-2-(4-chloro-phenylamino)-thiazol-5-yl]-(3-nitro-phenyl)-methanone] | – | – | < 10 | < 10
10 | Nc1nc(Nc2ccccc2)sc1C(=O)c1ccccc1 [Compound 2-25, (4-Amino-2-phenylamino-thiazol-5-yl)-phenyl-methanone] | – | – | < 10 | < 10
11 | Nc1nc(Nc2ccc(Cl)cc2)sc1C(=O)c1ccccc1 [Compound 2-26, [4-Amino-2-(4-chloro-phenylamino)-thiazol-5-yl]-phenyl-methanone] | – | – | < 10 | < 10
12 | Nc1nc(Nc2ccc(Cl)cc2)sc1C(=O)c1ccc(Br)cc1 [Compound 2-27, [4-Amino-2-(4-chloro-phenylamino)-thiazol-5-yl]-(4-bromo-phenyl)-methanone] | – | – | < 10 | < 10
13 | Nc1nc(Nc2ccc(F)cc2)sc1C(=O)c1ccc(F)cc1 [Compound 2-28, [4-Amino-2-(4-fluoro-phenylamino)-thiazol-5-yl]-(4-fluoro-phenyl)-methanone] | – | – | < 10 | < 10
14 | Nc1nc(Nc2ccccc2Cl)sc1C(=O)c1ccccc1 [Compound 2-29, [4-Amino-2-(2-chloro-phenylamino)-thiazol-5-yl]-phenyl-methanone] | – | – | < 10 | < 10
15 | COc1ccc(C(=O)c2sc(Nc3ccccc3)nc2N)cc1OC [Compound 2-31, (4-Amino-2-phenylamino-thiazol-5-yl)-(3,4-dimethoxy-phenyl)-methanone] | – | – | < 10 | < 10
16 | Nc1nc(Nc2cc(Cl)ccc2Cl)sc1C(=O)c1ccccc1 [Compound 2-32, [4-Amino-2-(2,5-dichloro-phenylamino)-thiazol-5-yl]-phenyl-methanone] | – | – | < 10 | < 10
17 | Nc1nc(Nc2cccc(C(=O)O)c2)sc1C(=O)c1ccccc1 [Compound 2-36, 3-(4-Amino-5-benzoyl-thiazol-2-ylamino)-benzoic acid] | – | – | < 10 | < 10
18 | COc1ccc(C(=O)c2sc(Nc3ccccc3)nc2N)cc1 [Compound 2-37, (4-Amino-2-phenylamino-thiazol-5-yl)-(4-methoxy-phenyl)-methanone] | – | – | < 10 | < 10
19 | COc1ccc(Nc2nc(N)c(C(=O)c3ccccc3)s2)cc1 [Compound 2-39, [4-Amino-2-(4-methoxy-phenylamino)-thiazol-5-yl]-phenyl-methanone] | – | – | < 10 | < 10

Row | Compound | IC50 (PDE4D; [2]) [µM] | IC50 [1, 3] [µM] | IC50 (PDE4D; [4]) [µM] | IC50 [1, 5] [µM]
20 | Nc1nc(Nc2c(Cl)cccc2Cl)sc1C(=O)c1ccc(OC(F)F)cc1 [Compound 2-42, [4-Amino-2-(2,6-dichloro-phenylamino)-thiazol-5-yl]-(4-difluoromethoxy-phenyl)-methanone] | – | – | < 10 | < 10
21 | Nc1nc(Nc2c(Cl)cc(Cl)cc2Cl)sc1C(=O)c1ccccc1 [Compound 2-43, [4-Amino-2-(2,4,6-trichloro-phenylamino)-thiazol-5-yl]-phenyl-methanone] | – | – | > 10 | < 10
22 | N#Cc1cccc(Nc2nc(N)c(C(=O)c3ccc(Oc4ccccc4)cc3)s2)c1 [Compound 2-46, 3-[4-Amino-5-(4-phenoxy-benzoyl)-thiazol-2-ylamino]-benzonitrile] | – | – | < 10 | < 10
23 | COc1ccc(C(=O)c2sc(Nc3cccc(C#N)c3)nc2N)cc1 [Compound 2-48, 3-[4-Amino-5-(4-methoxy-benzoyl)-thiazol-2-ylamino]-benzonitrile] | – | – | < 10 | < 10
24 | COc1ccc(C(=O)c2sc(Nc3ccc(Oc4ccccc4)cc3)nc2N)cc1 [Compound 2-49, [4-Amino-2-(4-phenoxy-phenylamino)-thiazol-5-yl]-(4-methoxy-phenyl)-methanone] | – | – | < 10 | < 10
25 | Nc1nc(Nc2ccccc2F)sc1C(=O)c1cccc(Cl)c1 [Compound 2-50, [4-Amino-2-(2-fluoro-phenylamino)-thiazol-5-yl]-(3-chloro-phenyl)-methanone] | – | – | < 10 | < 10
26 | COc1ccc(Nc2nc(N)c(C(=O)c3cccc(Cl)c3)s2)cc1 [Compound 2-51, [4-Amino-2-(4-methoxy-phenylamino)-thiazol-5-yl]-(3-chloro-phenyl)-methanone] | – | – | < 10 | < 10
27 | N#Cc1cccc(Nc2nc(N)c(C(=O)c3cccc(Cl)c3)s2)c1 [Compound 2-52, 3-[4-Amino-5-(3-chloro-benzoyl)-thiazol-2-ylamino]-benzonitrile] | – | – | < 10 | < 10
28 | Nc1nc(Nc2ccc(Oc3ccccc3)cc2)sc1C(=O)c1cccc(Cl)c1 [Compound 2-53, [4-Amino-2-(4-phenoxy-phenylamino)-thiazol-5-yl]-(3-chloro-phenyl)-methanone] | – | – | < 10 | < 10
29 | Nc1nc(Nc2ccccc2F)sc1C(=O)c1cccc(C(F)(F)F)c1 [Compound 2-54, [4-Amino-2-(2-fluoro-phenylamino)-thiazol-5-yl]-(3-trifluoromethyl-phenyl)-methanone] | – | – | < 10 | < 10
30 | COc1ccc(Nc2nc(N)c(C(=O)c3cccc(C(F)(F)F)c3)s2)cc1 [Compound 2-55, [4-Amino-2-(4-methoxy-phenylamino)-thiazol-5-yl]-(3-trifluoromethyl-phenyl)-methanone] | – | – | < 10 | < 10
31 | N#Cc1cccc(Nc2nc(N)c(C(=O)c3cccc(C(F)(F)F)c3)s2)c1 [Compound 2-56, 3-[4-Amino-5-(3-trifluoromethyl-benzoyl)-thiazol-2-ylamino]-benzonitrile] | – | – | < 10 | < 10
32 | Nc1nc(Nc2ccc(Oc3ccccc3)cc2)sc1C(=O)c1cccc(C(F)(F)F)c1 [Compound 2-57, [4-Amino-2-(4-phenoxy-phenylamino)-thiazol-5-yl]-(3-trifluoromethyl-phenyl)-methanone] | – | – | > 10 | < 10
33 | Nc1nc(Nc2ccccc2F)sc1C(=O)c1ccc(OC(F)F)cc1 [Compound 2-58, [4-Amino-2-(2-fluoro-phenylamino)-thiazol-5-yl]-(4-difluoromethoxy-phenyl)-methanone] | – | – | < 10 | < 10
34 | COc1ccc(Nc2nc(N)c(C(=O)c3ccc(OC(F)F)cc3)s2)cc1 [Compound 2-59, [4-Amino-2-(4-methoxy-phenylamino)-thiazol-5-yl]-(4-difluoromethoxy-phenyl)-methanone] | – | – | < 10 | < 10
35 | N#Cc1cccc(Nc2nc(N)c(C(=O)c3ccc(OC(F)F)cc3)s2)c1 [Compound 2-60, 3-[4-Amino-5-(4-difluoromethoxy-benzoyl)-thiazol-2-ylamino]-benzonitrile] | – | – | > 10 | < 10
36 | COc1cccc(C(=O)c2sc(Nc3ccccc3F)nc2N)c1 [Compound 2-62, [4-Amino-2-(2-fluoro-phenylamino)-thiazol-5-yl]-(3-methoxy-phenyl)-methanone] | – | – | < 10 | < 10
37 | COc1ccc(Nc2nc(N)c(C(=O)c3cccc(OC)c3)s2)cc1 [Compound 2-63, [4-Amino-2-(4-methoxy-phenylamino)-thiazol-5-yl]-(3-methoxy-phenyl)-methanone] | – | – | < 10 | < 10
